Test results published in patent publication US20240238242A1, “EGCG buccal tablet and use thereof” (priority 2023, published 2024).
Values after ≈ are worked out from the molar mass of the structure shown. Values joined by “and” are separate entries in the source; they are usually repeats but may differ in a detail not shown here. Equal entries are not always repeated. Where two headings read alike, the source gives them in different places.

Columns and labels:
[1] = system: Influenza A H1N1 virus (H1N1-PR8); type: cell-based; conditions: for inactivation efficiency against the virus: single experiment; for average inactivation efficiency against virus: three experiments
[2] = rats, intragastric decaffeinated green tea (DGT) 200 mg/kg; cited from earlier work
[3] = system: Madin-darby canine kidney cells (MDCK)
[4] = system: Helicobacter pylori (Hp) strain B5-3; experiment: In vitro bactericidal concentration (MBC) against Helicobacter pylori, broth dilution and plate counting; conditions: for Bactericidal rate % / Concentration CFU/mL / Average number of colonies: shake flask about 24 hours; for Average number of colonies: dilution factor 10^−4
[5] = 1 mM EGCG, PR8 virus, 5 minutes
[6] = 5 mM EGCG, PR8 virus, 5 minutes

SMILES: O=C(O[C@@H]1Cc2c(O)cc(O)cc2O[C@@H]1c1cc(O)c(O)c(O)c1)c1cc(O)c(O)c(O)c1 [EGCG, Epigallocatechin gallate]
- CPE test (virus replication in the cell wells) ([1]; 1 mM EGCG + virus, PR8, 1 minute, second experiment, dilution factor 10^5, wells 1-10): +
- CPE test (virus replication in the cell wells) ([1]; 1 mM EGCG + virus, PR8, 1 minute, second experiment, dilution factor 10^6, wells 1-10): − and +
- CPE test (virus replication in the cell wells) ([1]; 1 mM EGCG + virus, PR8, 1 minute, second experiment, dilution factor 10^7, wells 1-10): −
- CPE test (virus replication in the cell wells) ([1]; 1 mM EGCG + virus, PR8, 1 minute, second experiment, dilution factor 10^8, wells 1-10): −
- inactivation efficiency against the virus ([1]; 1 mM EGCG, PR8 virus, 1 minute): 87.41% and 80.05%
- average inactivation efficiency against virus ([1]; 1 mM EGCG, PR8 virus, 1 minute): 82.50%
- inactivation efficiency against the virus [1, 5]: 87.41% and 84.15% and 90.00%
- average inactivation efficiency against virus [1, 5]: 87.19%
- CPE test, virus replication in cell wells (wells 1-10) ([1]; 5 mM EGCG + PR8 virus, 5 minutes, third experiment, dilution factor 10^4): + and −
- CPE test, virus replication in cell wells (wells 1-10) ([1]; 5 mM EGCG + PR8 virus, 5 minutes, third experiment, dilution factor 10^5): − and +
- CPE test, virus replication in cell wells (wells 1-10) ([1]; 5 mM EGCG + PR8 virus, 5 minutes, third experiment, dilution factor 10^6): −
- CPE test, virus replication in cell wells (wells 1-10) ([1]; 5 mM EGCG + PR8 virus, 5 minutes, third experiment, dilution factor 10^7): −
- CPE test, virus replication in cell wells (wells 1-10) ([1]; 5 mM EGCG + PR8 virus, 5 minutes, third experiment, dilution factor 10^8): −
- CPE test (virus replication in the cell wells) ([1]; 5 mM EGCG + PR8 virus, co-incubated 1 minute, third experiment, dilution factor 10^4, wells 1-10): +
- CPE test (virus replication in the cell wells) ([1]; 5 mM EGCG + PR8 virus, co-incubated 1 minute, third experiment, dilution factor 10^5, wells 1-10): + and −
- CPE test (virus replication in the cell wells) ([1]; 5 mM EGCG + PR8 virus, co-incubated 1 minute, third experiment, dilution factor 10^6, wells 1-10): − and +
- CPE test (virus replication in the cell wells) ([1]; 5 mM EGCG + PR8 virus, co-incubated 1 minute, third experiment, dilution factor 10^7, wells 1-10): −
- CPE test (virus replication in the cell wells) ([1]; 5 mM EGCG + PR8 virus, co-incubated 1 minute, third experiment, dilution factor 10^8, wells 1-10): −
- CPE test (virus replication in the cell wells) ([1]; 5 mM EGCG + PR8 virus, co-incubated 5 minutes, first experiment, dilution factor 10^4, wells 1-10): −
- CPE test (virus replication in the cell wells) ([1]; 5 mM EGCG + PR8 virus, co-incubated 5 minutes, first experiment, dilution factor 10^5, wells 1-10): −
- CPE test (virus replication in the cell wells) ([1]; 5 mM EGCG + PR8 virus, co-incubated 5 minutes, first experiment, dilution factor 10^6, wells 1-10): −
- CPE test (virus replication in the cell wells) ([1]; 5 mM EGCG + PR8 virus, co-incubated 5 minutes, first experiment, dilution factor 10^7, wells 1-10): −
- CPE test (virus replication in the cell wells) ([1]; 5 mM EGCG + PR8 virus, co-incubated 5 minutes, first experiment, dilution factor 10^8, wells 1-10): −
- CPE test (virus replication in the cell wells) ([1]; 5 mM EGCG + virus, PR8, 1 minute, first experiment, dilution factor 10^4, wells 1-10): + and −
- CPE test (virus replication in the cell wells) ([1]; 5 mM EGCG + virus, PR8, 1 minute, first experiment, dilution factor 10^5, wells 1-10): − and +
- CPE test (virus replication in the cell wells) ([1]; 5 mM EGCG + virus, PR8, 1 minute, first experiment, dilution factor 10^6, wells 1-10): −
- CPE test (virus replication in the cell wells) ([1]; 5 mM EGCG + virus, PR8, 1 minute, first experiment, dilution factor 10^7, wells 1-10): −
- CPE test (virus replication in the cell wells) ([1]; 5 mM EGCG + virus, PR8, 1 minute, first experiment, dilution factor 10^8, wells 1-10): −
- CPE test (virus replication in the cell wells) ([1]; 5 mM EGCG + virus, PR8, 1 minute, second experiment, dilution factor 10^4, wells 1-10): − and +
- CPE test (virus replication in the cell wells) ([1]; 5 mM EGCG + virus, PR8, 1 minute, second experiment, dilution factor 10^5, wells 1-10): − and +
- CPE test (virus replication in the cell wells) ([1]; 5 mM EGCG + virus, PR8, 1 minute, second experiment, dilution factor 10^6, wells 1-10): −
- CPE test (virus replication in the cell wells) ([1]; 5 mM EGCG + virus, PR8, 1 minute, second experiment, dilution factor 10^7, wells 1-10): −
- CPE test (virus replication in the cell wells) ([1]; 5 mM EGCG + virus, PR8, 1 minute, second experiment, dilution factor 10^8, wells 1-10): −
- inactivation efficiency against the virus ([1]; 5 mM EGCG, PR8 virus, 1 minute): 99.50% and 99.60% and 93.69%
- average inactivation efficiency against virus ([1]; 5 mM EGCG, PR8 virus, 1 minute): 97.60%
- residual virus titer of EGCG+virus group (Karber method) [1, 6]: 10^4 TCID50/50 μL
- inactivation efficiency against the virus [1, 6]: 99.92% and 99.75% and 99.60%
- average inactivation efficiency against virus [1, 6]: 99.76%
- bioavailability of EGCG [2]: 0.1%
- CPE test / cytotoxicity, negative control group [3]: −
- Cytotoxicity / CPE in cell wells 1-10, negative control group [3]: −
- Cytotoxicity / CPE in cell wells, negative control group (EGCG + culture medium) [3]: −
- Cytotoxicity / CPE in cell wells, negative control group (wells 1-10) [3]: −
- Cytotoxicity / CPE in negative control group [3]: −
- Cytotoxicity / CPE per cell well, negative control group [3]: −
- Cytotoxicity / CPE test, negative control group [3]: −
- cell status in negative control group ([3]; MDCK cells, 0.2 mM group): good growth status
- cytotoxicity in negative control group ([3]; MDCK cells, 1 mM group): cytotoxicity was observed
- cytotoxicity in negative control group ([3]; MDCK cells, 5 mM group): cytotoxicity was observed
- cytotoxicity in negative control group ([3]; MDCK cells, sample of 10 times dilution in the 1 mM group): cytotoxicity was observed
- Bactericidal rate % ([4]; EGCG 100 μM): 98.8%
- Concentration CFU/mL ([4]; EGCG 100 μM): 1.4 × 10^7 CFU/mL
- Average number of colonies ([4]; EGCG 100 μM): 142
- Bactericidal rate % ([4]; EGCG 200 μM): >99.9%
- Concentration CFU/mL ([4]; EGCG 200 μM): 3.5 × 10^6 CFU/mL
- Average number of colonies ([4]; EGCG 200 μM): 35
- Bactericidal rate % ([4]; EGCG 400 μM): >99.9%
- Concentration CFU/mL ([4]; EGCG 400 μM): 2.2 × 10^6 CFU/mL
- Average number of colonies ([4]; EGCG 400 μM): 22
- MBC ([4]; Helicobacter pylori, 24 h, read-out: minimum bactericidal concentration (MBC)): 200 µM (≈ 91.7 µg/mL)
- Hp inactivated ([4]; shake flask culture, lowest concentration of 100 μM): about 98.9%
